Test results as given in patent US9630977B2, “Cephalosporin derivatives and pharmaceutical compositions thereof” (Legochem Biosciences, Inc., priority 2011, dated 2017).
Values after ≈ are worked out from the molar mass of the structure shown.

Columns and labels:
Format in all cases: cell-based
[1] = tested on: P. aeruginosa 40; assay: In vitro antibacterial activity test (broth microdilution); conditions: Pseudomonas aeruginosa, 40, P. aeruginosa 40; read-out: MIC90
Method in brief: (§1)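 Clinical isolates; CLSI broth microdilution; MIC90 in ug/mL; final compound range 0.0626–128 ug/mL; DMSO 2.5% (V/V) final.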

[2] = tested on: E. cloacae β19; assay: as above; conditions: Enterobacter cloacae, read-out: MIC90
Method in brief: as §1

[3] = tested on: M. catarrhalis 2524; assay: as above; conditions: Moraxella catarrhalis; M. catarrhalis 2524; read-out: MIC90
Method in brief: as §1

[4] = tested on: A. baumannii 52; assay: as above; conditions: Acinetobacter baumannii; A. baumannii 52; read-out: MIC90
Method in brief: as §1

[5] = tested on: P. aeruginosa 6065Y; assay: as above; conditions: Pseudomonas aeruginosa, read-out: MIC90
Method in brief: as §1

[6] = tested on: K. pneumoniae β14; assay: as above; conditions: Klebsiella pneumoniae, read-out: MIC90
Method in brief: as §1

[7] = tested on: P. aeruginosa 43; assay: as above; conditions: Pseudomonas aeruginosa; P. aeruginosa 43; read-out: MIC90
Method in brief: as §1

[8] = tested on: P. aeruginosa 1912E; assay: as above; conditions: Pseudomonas aeruginosa, 1912E, read-out: MIC90
Method in brief: as §1

[9] = tested on: E. coli AG100; assay: as above; conditions: Escherichia coli, AG100, E. coli AG100; read-out: MIC90
Method in brief: as §1

[10] = tested on: A. baumannii 46; assay: as above; conditions: Acinetobacter baumannii; A. baumannii 46; read-out: MIC90
Method in brief: as §1

[11] = tested on: K. pneumoniae β11; assay: as above; conditions: Klebsiella pneumoniae; K. pneumoniae β11; read-out: MIC90
Method in brief: as §1

[12] = tested on: K. pneumoniae 2011E; assay: as above; conditions: Klebsiella pneumoniae, 2011E, K. pneumoniae 2011E; read-out: MIC90
Method in brief: as §1

[13] = tested on: A. baumannii 49; assay: as above; conditions: Acinetobacter baumannii; A. baumannii 49; read-out: MIC90
Method in brief: as §1

[14] = tested on: K. pneumoniae β10; assay: as above; conditions: Klebsiella pneumoniae; K. pneumoniae β10; read-out: MIC90
Method in brief: as §1

[15] = tested on: P. aeruginosa 37; assay: as above; conditions: Pseudomonas aeruginosa, 37, P. aeruginosa 37; read-out: MIC90
Method in brief: as §1

[16] = tested on: E. coli β4; assay: as above; conditions: Escherichia coli, read-out: MIC90
Method in brief: as §1

[17] = tested on: A. calcoaceticus ATCC15473; assay: as above; conditions: Acinetobacter calcoaceticus; A. calcoaceticus ATCC15473; read-out: MIC90
Method in brief: as §1

[18] = tested on: K. pneumoniae β9; assay: as above; conditions: Klebsiella pneumoniae, K. pneumoniae β9; read-out: MIC90
Method in brief: as §1

[19] = tested on: K. pneumoniae β13; assay: as above; conditions: Klebsiella pneumoniae, K. pneumoniae β13; read-out: MIC90
Method in brief: as §1

[20] = tested on: 19 clinical isolates; assay: In vitro antibacterial activity test, panel of 19 clinical isolates as a whole; conditions: effect of a siderophore group, Table 1
Method: To evaluate antibacterial activity of each of the compounds of Examples 1 to 68, in vitro antibacterial activity test was performed.
(§2) The in vitro antibacterial activity was evaluated by measuring MIC90 (ug/mL) of each of the compounds of Examples 1 to 68, which is defined as the lowest concentration of an antibiotic that will inhibit the visible growth of 90% of microorganisms after incubation as compared with a control group to which the antibiotic is not treated. MIC90 values were measured by the broth microdilution method developed by the Clinical and Laboratory Standards Institute (CLSI) (see CLSI M7-A5, Methods for Dilution Antimicrobial Susceptibility Test for Bacteria that Grow Aerobically-Fifth Edition (2000): CLSI, Villanova, Pa.).
In vitro antibacterial activity was measured with respect to the following 19 clinical isolates: M. catarrhalis; P. aeruginosa (5 strains); K. pneumoniae (6 strains); A. baumannii (3 strains); E. coli (2 strains); A. calcoaceticus; and E. cloacae.
(§3) Test compounds each (the cephalosporin derivative compounds prepared in Examples 1 to 68) were dissolved in DMSO at the concentration of 10,240 ug/mL, were diluted by two fold with DMSO, and then were diluted by twenty fold with sterilized distilled water. The final concentration in the antibacterial activity test was in the range of […] to 128 ug/mL, and the final concentration of DMSO used as an adjuvant was 2.5% (V/V).

[21] = tested on: K. pneumoniae (38 clinical isolates); assay: Antibacterial activity on representative drug-resistance bacteria: number of clinical isolates per MIC value; conditions: K. pneumomiae (N = 38)
Method: as §2, §3

[22] = tested on: A. baumannii (6 clinical isolates); assay: as above; conditions: A. baumanni (N = 6)
Method: as §2, §3

[23] = tested on: P. aeruginosa (16 clinical isolates); assay: as above; conditions: P. aeruginosa (N = 16)
Method: as §2, §3

CC(C)(O/N=C(\C(=O)N[C@@H]1C(=O)N2C(C(=O)[O-])=C(/C=C/C[n+]3cnc(N)c(NCCNC(=O)c4cc(=O)c(O)cn4O)c3)CSC12)c1nc(N)sc1Cl)C(=O)O (stereo partly drawn) [Compound 26]
MIC90 [1]: < 0.0625 µg/mL
MIC90 [2]: 0.125 µg/mL (≈ 0.15 µM)
MIC90 [3]: < 0.0625 µg/mL
MIC90 [4]: 2 µg/mL (≈ 2.4 µM)
MIC90 [5]: 0.5 µg/mL (≈ 0.599 µM)
MIC90 [6]: 4 µg/mL (≈ 4.79 µM)
MIC90 [7]: 0.25 µg/mL (≈ 0.3 µM)
MIC90 [8]: 0.25 µg/mL (≈ 0.3 µM)
MIC90 [9]: < 0.0625 µg/mL
MIC90 [10]: 2 µg/mL (≈ 2.4 µM)
MIC90 [11]: 0.5 µg/mL (≈ 0.599 µM)
MIC90 [12]: 0.5 µg/mL (≈ 0.599 µM)
MIC90 [13]: 16 µg/mL (≈ 19.2 µM)
MIC90 [14]: < 0.0625 µg/mL
MIC90 [15]: < 0.0625 µg/mL
MIC90 [16]: < 0.0625 µg/mL
MIC90 [17]: 0.5 µg/mL (≈ 0.599 µM)
MIC90 [18]: 0.125 µg/mL (≈ 0.15 µM)
MIC90 [19]: < 0.0625 µg/mL
antibacterial activity (in words) [20]: significantly improved
number of clinical isolates that showed the respective MIC value ([21]; MIC 0.25 ug/mL): 1
number of clinical isolates that showed the respective MIC value ([21]; MIC 0.5 ug/mL): 2
number of clinical isolates that showed the respective MIC value ([21]; MIC 1 ug/mL): 3
number of clinical isolates that showed the respective MIC value ([21]; MIC 2 ug/mL): 1
number of clinical isolates that showed the respective MIC value ([21]; MIC 8 ug/mL): 4
number of clinical isolates that showed the respective MIC value ([21]; MIC 16 ug/mL): 4
number of clinical isolates that showed the respective MIC value ([21]; MIC <0.0625 ug/mL): 1
number of clinical isolates that showed the respective MIC value ([21]; MIC >16 ug/mL): 22
number of clinical isolates that showed the respective MIC value ([22]; MIC 0.5 ug/mL): 1
number of clinical isolates that showed the respective MIC value ([22]; MIC 8 ug/mL): 2
number of clinical isolates that showed the respective MIC value ([22]; MIC >16 ug/mL): 3
number of clinical isolates that showed the respective MIC value ([23]; MIC 0.0625 ug/mL): 1
number of clinical isolates that showed the respective MIC value ([23]; MIC 0.25 ug/mL): 2
number of clinical isolates that showed the respective MIC value ([23]; MIC 0.5 ug/mL): 3
number of clinical isolates that showed the respective MIC value ([23]; MIC 1 ug/mL): 1
number of clinical isolates that showed the respective MIC value ([23]; MIC 2 ug/mL): 2
number of clinical isolates that showed the respective MIC value ([23]; MIC 4 ug/mL): 3
number of clinical isolates that showed the respective MIC value ([23]; MIC 8 ug/mL): 1
number of clinical isolates that showed the respective MIC value ([23]; MIC >16 ug/mL): 3
